Data reported in US12486255B2, “Modulators of RAS GTPase” (Tosk, Inc., priority 2018, dated 2025).
“And” between values parts separate entries of the source, which are not always exact repeats. Identical values can stand only once.

Key:
[1] = Multi-day safety study in mice; format: in vivo; conditions: female CD1 mice, 2 mg/kg ip daily for 6 days
Experimental: The multi-day safety study used female, 10 week old, CD1 mice (4/treatment group) dosed with DMSO. Mice were administered 2 mg/kg of Structure 2 or 10 mg/kg Structure 3, ip, daily for 6 days and evaluated for changes clinical chemistry values, hematology values and animal weight as well as signs of health and grooming habits.
Heparinized blood samples were obtained by retro-orbital puncture on Day 6, 12 hours after the last dose of Structure 2. The plasma harvested from the blood was analyzed for standard clinical chemistry parameters (ALB. ALP, ALT, AMY, TBIL, BUN, CA, PHOS, CRE GLU, NA, K, TP & GLOB) and hematology (WBC, LYM, MON, GRA, RBC, HGB, HCT, MCV, MCH, MCHC, RDWc, PLT, PCT, MPV, PDWc) analytes (see definitions herein). Animal weight changes were also monitored. Values for all analytes were analyzed by one way ANOVA plus post-hoc Bonferroni using SPSS (IBM, Armonk, NY).

[2] = tested on: flies expressing G12V in their wing; experiment: Fly assay, wing phenotype reversal; format: in vivo, Drosophila
Text: Each wing from mutant flies receiving treatment with either water or compound received a score from two independent scorers according to the scheme outlined in the schematic. The analysis of the scores given to the compound group was compared to the scores given for the control (water) group.
Embryo preparation. GAL4 virgin ♀ were collected over a period of 3-5 days, then crossed with kRAS G12V (3M) ♂ inside a plastic condo supplied with grape agar containing yeast paste. Flies were acclimated for 2 days and embryos present after a span of 4-5 hours were collected along with the agar plate and incubated for 24 hours. The next day, embryos were washed off the agar plate with Embryo Wash solution (120 mM NaCl, 0.03% Triton X) and resuspended in Embryo Inoculation solution (120 mM NaCl, 420 mM Sucrose, 0.05% Triton X-100). Embryos were counted and diluted to 15 embryos/10 μL. 150 embryos (100 μL) were dispensed into each vial.
Food-drug admix preparation. Each fly vial contains 1.5 g of fly food in 4 ml water. The quantity of drug needed is calculated for a total of 4 vials, each vial containing 10 μM of Structure 2. This is equivalent to 0.014 mg of Structure 2/vial, for a total of 0.056 mg of Structure 2.
A stock solution of 0.1 mg/mL Structure 2 in ethanol is prepared. A 500-ml round bottom flask is charged with 6 g of fly food (1.5 g×4), to which is added 20 mL of ethanol, ensuring that the food is entirely covered in solvent. To this heterogeneous solution is added an appropriate amount of Structure 2 stock solution, containing the calculated required quantity, in this case 0.56 mL stock solution.
The ethanol is evaporated under reduced pressure via a rotary evaporator equipped with a bump trap. The resulting dry food is added to three vials, each containing 1.5 g, so that the experiment is performed in triplicate. The quantity is calculated initially for 4 vials, because some food will be stuck to the walls of the round bottom flask and some is also invariably lost in the bump trap during the solvent evaporation step. Control vials lacking Structure 2 or Structure 3 are also analyzed and undergo the exact same food preparation and solvent extraction procedure.
Embryo addition to vials. After all the food-drug admix is prepared and added to the respective vials, to each vial is added 4 mL of water and the vial briefly vortexed. To this liquid mixture is added the embryo solution (100 μL), the vials capped and placed in an incubator or fly room.
Wing mounting and scoring. Flies hatch 10-12 days after the above experimental setup is performed. The resulting adult flies are submerged in a 3:1 70% ethanol:glycerol solution for 24 hours, then wings are dissected with curved Vannas spring scissors (FST #15001-08). The wings are mounted in an 80% glycerol solution on a microscope slide under coverslip seal.
Pictures of the wings were taken using an Accu-Scope microscope equipped with a digital camera and connected to a laptop containing the Accu-Scope Micrometric SE Premium software. The wings were scored according to the following scoring tree:
Wing score analysis. After each wing received a score from two independent scorers, the analysis of the scores given to the Structure 2 and 3 groups was compared to the scores given for the control group and was performed using the IBM SPSS software.
Wings that received a score of 3 or above are considered “reversed”, since their phenotype is closer to WT than to kRAS G12V bearing Drosophila. The findings are plotted in FIG. 9. […]

Compound: Cc1nc(-c2ccc(CNC(=O)c3cc(CC(C)C)nn3C)cc2)no1 [Structure 2, 3-isobutyl-1-methyl-N-(4-(5-methyl-1,2,4-oxadiazol-3-yl)benzyl)-1H-pyrazole-5-carboxamide]
- body weight or grooming habits versus dosing vehicle treated animals [1]: no statistically significant difference
- clinical chemistry changes versus dosing vehicle treated animals [1]: no significant clinical chemistry changes
- ALB ([1]; Day 6): 3.88 ± 0.30 g/dL
- ALP ([1]; Day 6): 66.50 ± 8.80 U/L
- ALT ([1]; Day 6): 59.00 ± 32.50 U/L
- AMY ([1]; Day 6): 871.50 ± 74.70 U/L
- BUN ([1]; Day 6): 18.25 ± 4.10 mg/dL
- CRE ([1]; Day 6): 0.34 ± 0.10 mg/dL
- Ca^++ ([1]; Day 6): 9.43 ± 0.40 mg/dL
- GLOB ([1]; Day 6): 1.23 ± 0.10 g/dL
- GLU ([1]; Day 6): 234.25 ± 31.70 mg/dL
- GRA ([1]; Day 6): 1.23 ± 0.20 10^9/l
- GRA (%) ([1]; Day 6): 19.03 ± 3.70%
- HCT ([1]; Day 6): 44.34 ± 4.60%
- HGB ([1]; Day 6): 15.23 ± 1.70 g/dL
- K^+ ([1]; Day 6): 5.35 ± 0.40 mmol/L
- LYM ([1]; Day 6): 5.17 ± 1.80 10^9/l
- LYM (%) ([1]; Day 6): 76.18 ± 3.50%
- MCH ([1]; Day 6): 16.15 ± 0.40 pg
- MCHC ([1]; Day 6): 34.35 ± 1.30 g/dL
- MCV ([1]; Day 6): 47.00 ± 2.40 fL
- MON ([1]; Day 6): 0.33 ± 0.10 10^9/l
- MON (%) ([1]; Day 6): 4.85 ± 0.40%
- MPV ([1]; Day 6): 7.10 ± 0.60 fL
- NA^+ ([1]; Day 6): 147.00 ± 0.80 mmol/L
- PCT ([1]; Day 6): 0.31 ± 0.10%
- PDWc ([1]; Day 6): 33.08 ± 3.40%
- PHOS ([1]; Day 6): 8.13 ± 1.00 mg/dL
- PLT ([1]; Day 6): 448.50 ± 193.10 10^9/l
- RBC ([1]; Day 6): 9.44 ± 1.00 10^12/l
- RDWc ([1]; Day 6): 17.40 ± 0.40%
- TBIL ([1]; Day 6): 0.43 ± 0.00 mg/dL
- TP ([1]; Day 6): 5.08 ± 0.20 g/dL
- WBC ([1]; Day 6): 6.72 ± 2.00 10^9/l
- Wing score, Scored 1-6, Mean ± SD ([2]; 10 μmolar in fly food, control 1.86 ± 0.62): 2.15
- wing scores compared to the control group ([2]; Tukey HSD and LSD p<0.001, Mann Whitney p=0.002): significantly different from the control group
- Reversal Phenotype (%) ([2]; wings with score of 3 or above, Structure 2 at 10 μmolar, control 8.27): 24% and 24.31%
